Test results: patent US3954767A, “Piperazine salts of 2,5-dihydroxy benzene sulfonic acid mono- and diesters” (priority 1972, dated 1976)
Counter-ions that a name gives are not always drawn.

Test system: not listed separately
Assay: Acute toxicity (LD50), mouse, oral, method of Reed and Muench
Type: in vivo, mouse (albino)
Conditions: mouse, in vivo, po, Table VI; species and route not printed in table (mouse per b12); read-out: LD50 (medium lethal dose)
Method: The acute toxicities for the mouse are also very low. The medium lethal dose (LD50) for the mouse was determined according to the modified method of Reed and Muench (Reed L. J. & Muench H., Am. J. Hyg., 27, 493, 1938).
1. ACUTE TOXICITY IN THE MOUSE AND RAT
18 to 25 gr albino mouse.
The LD50 was determined according to the method of Reed and Muench. […]

Compound	LD50 [mg/kg]
CC(C)(Oc1ccc(Cl)cc1)C(=O)Oc1ccc(O)c(S(=O)(=O)O)c1 [mono-p-chloro phenoxy isobutyrate of pyridine 2,5-dihydroxy benzene sulfonate]	900
O=C(Oc1ccc(OC(=O)c2ccccc2)c(S(=O)(=O)O)c1)c1ccccc1 [morpholine 2.5-dihydroxybenzenesulphonate dibenzoate]	4000
Cc1ccc(S(=O)(=O)Oc2ccc(O)c(S(=O)(=O)O)c2)cc1 [piperidine 2.5-dihydroxybenzenesulphonate monotosylate]	5000

Test system: rats treated with Triton WR-1339
Assay: Hypolipemic action on the rat, Triton WR-1339 method
Type: in vivo
Conditions: Table VI; with respect to Triton WR-1339; 2 mMoles/Kg orally
Method: The above-mentioned Triton WR-1339 method was selected. The total cholesterol, triglycerides and total lipids were determined in the serum. The amount of Triton WR-1339 administered to the animals was 300 mg/kg. The amount of piperazine 2,5-dihydroxy benzene sulfonate mono-tosylate administered was 2 mMoles/Kg orally. The letter P signifies probability.
The above-mentioned Triton WR-1339 method was selected. The total cholesterol, triglycerides and total lipids were determined in the serum. The results obtained are given in Table V. The amount of Triton WR-1339 administered to the animals was 300 mg/Kg. The amount of the piperazine salt with one mole of the di-0-(p-chloro phenoxy isobutyrate) of 2,5-dihydroxy benzene sulfonic acid administered was 1 mMol/Kg orally. The letter P signifies probability.
In this Triton WR-1339 method, all the compounds are administered at a dose of 2 mMoles/Kg orally excepted those compounds in which is the residue of p-chlorophenoxy isobutyric acid, which are administered orally at a dose corresponding to 2 mMoles of R per Kg, i.e. the amount used is calculated on the basis of the residue R only.

Compound	Percentage reduction of lipids: Cholesterol [%]	Percentage reduction of lipids: Total Lipids [%]	Percentage reduction of lipids: Triglycerides [%]
O=C(Oc1ccc(OC(=O)c2ccccc2)c(S(=O)(=O)O)c1)c1ccccc1 [diethylamine 2,5-dihydroxybenzenesulfonate dibenzoate] [diethylamine 2.5-dihydroxybenzensulphonate dibenzoate]	12	22	14
O=C(Oc1ccc(OC(=O)c2ccccc2)c(S(=O)(=O)O)c1)c1ccccc1 [morpholine 2,5-dihydroxybenzenesulfonate dibenzoate] [morpholine 2.5-dihydroxybenzenesulphonate dibenzoate]	12	21	17
O=C(Oc1ccc(OC(=O)c2ccccc2)c(S(=O)(=O)O)c1)c1ccccc1 [piperazine 2,5-dihydroxybenzenesulfonate dibenzoate] [piperazine 2.5-dihydroxybenzenesulphonatedibenzoate]	13	20	18
O=C(Oc1ccc(OC(=O)c2ccccc2)c(S(=O)(=O)O)c1)c1ccccc1 [piperazine bis(2,5-dihydroxybenzene sulfonate dibenzoate)] [piperazine bis(2.5-dihydroxybenzenesulphonate dibenzoate)]	9	16	14
Cc1ccc(S(=O)(=O)Oc2ccc(O)c(S(=O)(=O)O)c2)cc1 [piperazine bis(2,5-dihydroxybenzenesulfonate monotosylate)] [piperazine bis(2.5-dihydroxybenzenesulphonate monotosylate)]	11	17	25
O=C(Oc1ccc(OC(=O)c2ccccc2)c(S(=O)(=O)O)c1)c1ccccc1 [piperidine 2,5-dihydroxybenzenesulfonate dibenzoate] [piperidine 2.5-dihydroxybenzenesulphonate dibenzoate]	14	23	19
Cc1ccc(S(=O)(=O)Oc2ccc(O)c(S(=O)(=O)O)c2)cc1 [piperidine bis(2,5-dihydroxybenzenesulfonate monotosylate)] [piperidine 2.5-dihydroxybenzenesulphonate monotosylate]	15	33	26
O=C(Oc1ccc(O)c(S(=O)(=O)O)c1)c1cccnc1 [pyridine 2,5-dihydroxybenzene sulfonate mono nicotinate]	17	25	24
O=C(Oc1ccc(OC(=O)c2ccccc2)c(S(=O)(=O)O)c1)c1ccccc1 [sodium 2,5-dihydroxybenzenesulfonate dibenzoate] [sodium 2.5-dihydroxybenzenesulphonate dibenzoate]	12	20	17
Cc1ccc(S(=O)(=O)Oc2ccc(O)c(S(=O)(=O)O)c2)cc1 [sodium 2,5-dihydroxybenzenesulfonate monotosylate] [sodium 2,5-dihydroxy benzene sulfonate mono-tosylate]	10	39	36

Same assay, conditions: Table VI; with respect to Triton WR-1339; orally, 2 mMoles of R (p-chlorophenoxy isobutyric acid residue) per Kg

Compound	Percentage reduction of lipids: Cholesterol [%]	Percentage reduction of lipids: Total Lipids [%]	Percentage reduction of lipids: Triglycerides [%]
CC(C)(Oc1ccc(Cl)cc1)C(=O)Oc1ccc(OC(=O)C(C)(C)Oc2ccc(Cl)cc2)c(S(=O)(=O)O)c1 [calcium salt of di-O-(p-chloro phenoxy isobutyrate) of 2,5-d] [calcium salt of di-O-(p-chlorophenoxy isobutyrate) of 2,5-dihydroxy benzene sulfonic acid]	27	29	33
CC(C)(Oc1ccc(Cl)cc1)C(=O)Oc1ccc(O)c(S(=O)(=O)O)c1 [calcium salt of mono-O-(p-chloro phenoxy isobutyrate) of 2,5] [calcium salt of mono-O-(p-chlorophenoxy isobutyrate) of 2,5-dihydroxybenzene sulfonic acid]	27	26	40
CC(C)(Oc1ccc(Cl)cc1)C(=O)Oc1ccc(O)c(S(=O)(=O)O)c1 [di-salt of piperazine of mono-O-(p-chloro phenoxy isobutyrat] [di-salt of piperazine of mono-O-(p-chlorophenoxy isobutyrate) of 2,5-dihydroxy benzene sulfonic acid]	16	26	31
CC(C)(Oc1ccc(Cl)cc1)C(=O)Oc1ccc(O)c(S(=O)(=O)O)c1 [magnesium salt of mono-O-(p-chloro phenoxy isobutyrate) of 2] [magnesium salt of mono-O-(p-chlorophenoxy isobutyrate) of 2,5-dihydroxy benzene sulfonic acid]	19	28	44
CC(C)(Oc1ccc(Cl)cc1)C(=O)Oc1ccc(O)c(S(=O)(=O)O)c1 [mono-salt of piperazine of mono-O-(p-chloro phenoxy isobutyr] [mono-salt of piperazine of mono-O-(p-chlorophenoxy isobutyrate) of 2,5-dihydroxy benzene sulfonic acid]	9	25	49
CC(C)(Oc1ccc(Cl)cc1)C(=O)Oc1ccc(OC(=O)C(C)(C)Oc2ccc(Cl)cc2)c(S(=O)(=O)O)c1 [piperazine di-salt of di-O-(p-chloro phenoxy isobutyrate) of] [piperazine di-salt of di-O-(p-chlorophenoxy isobutyrate) of 2,5-dihydroxy benzene sulfonic acid]	29	37	21
CC(C)(Oc1ccc(Cl)cc1)C(=O)Oc1ccc(OC(=O)C(C)(C)Oc2ccc(Cl)cc2)c(S(=O)(=O)O)c1 [piperazine mono-salt of di-O-(p-chloro phenoxy isobutyrate) ] [piperazine mono-salt of di-O-(p-chlorophenoxy isobutyrate) of 2,5-dihydroxy benzene sulfonic acid]	25	28	49
CC(C)(Oc1ccc(Cl)cc1)C(=O)Oc1ccc(O)c(S(=O)(=O)O)c1 [pyridine 2,5-dihydroxybenzenesulfonate mono-p-chloro phenoxy] [mono-p-chloro phenoxy isobutyrate of pyridine 2,5-dihydroxy benzene sulfonate]	16	23	27
CC(C)(Oc1ccc(Cl)cc1)C(=O)Oc1ccc(OC(=O)C(C)(C)Oc2ccc(Cl)cc2)c(S(=O)(=O)O)c1 [pyridine salt of di-O-(p-chloro phenoxy isobutyrate) of 2,5-] [pyridine salt of the di-O-(p-chlorophenoxy isobutyrate) of 2,5-dihydroxy benzene sulfonic acid]	20	31	32

Same assay, conditions: Table VI; with respect to Triton WR-1339; orally, 2 mMoles of R (p-chlorophenoxy isobutyric acid residue) per Kg; dihydrate

Compound	Percentage reduction of lipids: Cholesterol [%]	Percentage reduction of lipids: Total Lipids [%]	Percentage reduction of lipids: Triglycerides [%]
CC(C)(Oc1ccc(Cl)cc1)C(=O)Oc1ccc(O)cc1S(=O)(=O)O [magnesium 2-O-(p-chlorophenoxyisobutyryl) 2,5-dihydroxybenzene sulfonate dihydrate]	18	27	21

Same assay, conditions: Triton 300 mg/Kg + compound 1 mMol/Kg orally; 0,0025<P<0,005

Compound	total cholesterol
CC(C)(Oc1ccc(Cl)cc1)C(=O)Oc1ccc(OC(=O)C(C)(C)Oc2ccc(Cl)cc2)c(S(=O)(=O)O)c1 [piperazine mono-salt of di-O-(p-chloro phenoxy isobutyrate) ] [piperazine mono-salt of di-O-(p-chlorophenoxy isobutyrate) of 2,5-dihydroxy benzene sulfonic acid]	212,5 mg % ml of plasma

Same assay, conditions: Triton 300 mg/Kg + compound 1 mMol/Kg orally; 0,005<P<0,010

Compound	total lipids	triglycerides
CC(C)(Oc1ccc(Cl)cc1)C(=O)Oc1ccc(OC(=O)C(C)(C)Oc2ccc(Cl)cc2)c(S(=O)(=O)O)c1 [piperazine mono-salt of di-O-(p-chloro phenoxy isobutyrate) ] [piperazine mono-salt of di-O-(p-chlorophenoxy isobutyrate) of 2,5-dihydroxy benzene sulfonic acid]	1503,8 mg % ml of plasma	572,5 mg % ml of plasma
